Results as given in patent US20200370087A1, “METHOD FOR DETERMINING MICROBIAL SUSCEPTIBILITY TO ANTIBIOTIC AGENTS” (Ascilion AB, priority 2017, published 2020).
In brackets after ≈: the same amount, converted by molar mass.

How the values were obtained:
[1] = system: Staphylococcus aureus (ATCC 29213); assay: Glucose consumption susceptibility test, blood culture diluted in MHB with glucose (Example 1); assay type: cell-based; parameters: glucose concentration, t = 0 / glucose concentration, t = 60 / glucose concentration, t = 120 / glucose concentration, t = 180 / glucose concentration, t = 240 / dC/dT (rate of change in glucose concentration): unit not given here; conditions: S. aureus; for glucose concentration, t = 60: 60 minutes; for glucose concentration, t = 120: 120 minutes; for glucose concentration, t = 180: 180 minutes; for glucose concentration, t = 240: 240 minutes
Description: (§1) Strains of Escherichia coli (ATCC 25922), Enterococcus faecalis (ATCC 29212) and Staphylococcus aureus (ATCC 29213) were inoculated in blood culture bottles (SVA, Uppsala, Sweden) and cultivated according to the manufacturer's instructions until positive.
(§2) Medium from each blood culture bottle was diluted 1:100 with cation adjusted Mueller-Hinton broth (SVA, Uppsala, Sweden) supplemented with glucose to a concentration of 1.0 mg/mL.
(§3) Glucose concentrations were measured at 0, 60, 120, 180, and 240 minutes using a WaveSense Jazz glucometer (AgaMatrix, Inc., Salem, N.H., USA) with accompanying test strips.
(§4) Susceptibility scores corresponding to MIC values were calculated as described above. A 80% threshold was applied, i.e. the lowest concentration of antibiotic that entailed a rate of change in glucose concentration that was equal to or less than 80% of the reference was selected as the Minimal Inhibitory Concentration. The rate of change was calculated between the measurements at 60 and 180 minutes.

[2] = system: Enterococcus faecalis (ATCC 29212); assay: as above; assay type: cell-based; parameters: glucose concentration, t = 0 / glucose concentration, t = 60 / glucose concentration, t = 120 / glucose concentration, t = 180 / glucose concentration, t = 240 / dC/dT (rate of change in glucose concentration): unit not given here; conditions: for F = the rate of change in glucose concentration in relation to the reference / dC/dT (rate of change in glucose concentration) / glucose concentration, t = 0 / glucose concentration, t = 60 / glucose concentration, t = 120 / glucose concentration, t = 180 / glucose concentration, t = 240: E. faecalis; for glucose concentration, t = 0: 0 minutes; for glucose concentration, t = 60: 60 minutes; for glucose concentration, t = 120: 120 minutes; for glucose concentration, t = 180: 180 minutes; for glucose concentration, t = 240: 240 minutes
Description: as §1, §2, §3, §4

`CN[C@H](CC(C)C)C(=O)N[C@H]1C(=O)N[C@@H](CC(N)=O)C(=O)N[C@H]2C(=O)N[C@H]3C(=O)N[C@H](C(=O)N[C@H](C(=O)O)c4cc(O)cc(O)c4-c4cc3ccc4O)[C@H](O)c3ccc(c(Cl)c3)Oc3cc2cc(c3O[C@@H]2O[C@H](CO)[C@@H](O)[C@H](O)[C@H]2O[C@H]2C[C@](C)(N)[C@H](O)[C@H](C)O2)Oc2ccc(cc2Cl)[C@H]1O` [Vancomycin, vancomycin] was tested, and the “F = the rate of change in glucose concentration in relation to the reference” value (shortened to “F = the rate of change”) ([1]; antibiotic 0.25 μg/mL) was 75%, the “dC/dT (rate of change in glucose concentration)” value ([1]; antibiotic 0.25 μg/mL) was 25 and the “glucose concentration, t = 60” value ([1]; antibiotic 0.25 μg/mL) was 142. For the same compound, the “glucose concentration, t = 120” value ([1]; antibiotic 0.25 μg/mL) was 133, the “glucose concentration, t = 180” value ([1]; antibiotic 0.25 μg/mL) was 92 and the “glucose concentration, t = 240” value ([1]; antibiotic 0.25 μg/mL) was 42. For the same compound, the “F = the rate of change” value ([1]; antibiotic 0.5 μg/mL) was 84%, the “dC/dT (rate of change in glucose concentration)” value ([1]; antibiotic 0.5 μg/mL) was 28 and the “glucose concentration, t = 60” value ([1]; antibiotic 0.5 μg/mL) was 156. For the same compound, the “glucose concentration, t = 120” value ([1]; antibiotic 0.5 μg/mL) was 142, the “glucose concentration, t = 180” value ([1]; antibiotic 0.5 μg/mL) was 100 and the “glucose concentration, t = 240” value ([1]; antibiotic 0.5 μg/mL) was 51. For the same compound, the “F = the rate of change” value ([1]; antibiotic 1 μg/mL) was 96%, the “dC/dT (rate of change in glucose concentration)” value ([1]; antibiotic 1 μg/mL) was 32 and the “glucose concentration, t = 60” value ([1]; antibiotic 1 μg/mL) was 161. For the same compound, the “glucose concentration, t = 120” value ([1]; antibiotic 1 μg/mL) was 140, the “glucose concentration, t = 180” value ([1]; antibiotic 1 μg/mL) was 97 and the “glucose concentration, t = 240” value ([1]; antibiotic 1 μg/mL) was 51. For the same compound, the “F = the rate of change” value ([1]; antibiotic 2 μg/mL) was 88%, the “dC/dT (rate of change in glucose concentration)” value ([1]; antibiotic 2 μg/mL) was 30 and the “glucose concentration, t = 60” value ([1]; antibiotic 2 μg/mL) was 160. For the same compound, the “glucose concentration, t = 120” value ([1]; antibiotic 2 μg/mL) was 143, the “glucose concentration, t = 180” value ([1]; antibiotic 2 μg/mL) was 101 and the “glucose concentration, t = 240” value ([1]; antibiotic 2 μg/mL) was 53. For the same compound, the “F = the rate of change” value ([1]; antibiotic 4 μg/mL) was 39%, the “dC/dT (rate of change in glucose concentration)” value ([1]; antibiotic 4 μg/mL) was 13 and the “glucose concentration, t = 60” value ([1]; antibiotic 4 μg/mL) was 157. The “glucose concentration, t = 120” value ([1]; antibiotic 4 μg/mL) was 147, the “glucose concentration, t = 180” value ([1]; antibiotic 4 μg/mL) was 131 and the “glucose concentration, t = 240” value ([1]; antibiotic 4 μg/mL) was 107. The “F = the rate of change” value ([1]; antibiotic 8 μg/mL) was 6%, the “dC/dT (rate of change in glucose concentration)” value ([1]; antibiotic 8 μg/mL) was 2 and the “glucose concentration, t = 60” value ([1]; antibiotic 8 μg/mL) was 150. The “glucose concentration, t = 120” value ([1]; antibiotic 8 μg/mL) was 150, the “glucose concentration, t = 180” value ([1]; antibiotic 8 μg/mL) was 146 and the “glucose concentration, t = 240” value ([1]; antibiotic 8 μg/mL) was 149. The “F = the rate of change” value ([1]; antibiotic 16 μg/mL) was 7%, the “dC/dT (rate of change in glucose concentration)” value ([1]; antibiotic 16 μg/mL) was 3 and the “glucose concentration, t = 60” value ([1]; antibiotic 16 μg/mL) was 157. For the same compound, the “glucose concentration, t = 120” value ([1]; antibiotic 16 μg/mL) was 153, the “glucose concentration, t = 180” value ([1]; antibiotic 16 μg/mL) was 152 and the “glucose concentration, t = 240” value ([1]; antibiotic 16 μg/mL) was 149. The “F = the rate of change” value ([1]; antibiotic 32 μg/mL) was 13%, the “dC/dT (rate of change in glucose concentration)” value ([1]; antibiotic 32 μg/mL) was 5 and the “glucose concentration, t = 60” value ([1]; antibiotic 32 μg/mL) was 157. The “glucose concentration, t = 120” value ([1]; antibiotic 32 μg/mL) was 140, the “glucose concentration, t = 180” value ([1]; antibiotic 32 μg/mL) was 148 and the “glucose concentration, t = 240” value ([1]; antibiotic 32 μg/mL) was 146. For the same compound, the “F = the rate of change” value ([2]; antibiotic 0.0625 μg/mL) was 93%, the “dC/dT (rate of change in glucose concentration)” value ([2]; antibiotic 0.0625 μg/mL) was 34 and the “glucose concentration, t = 0” value ([2]; antibiotic 0.0625 μg/mL) was 145. For the same compound, the “glucose concentration, t = 60” value ([2]; antibiotic 0.0625 μg/mL) was 156, the “glucose concentration, t = 120” value ([2]; antibiotic 0.0625 μg/mL) was 139 and the “glucose concentration, t = 180” value ([2]; antibiotic 0.0625 μg/mL) was 89. For the same compound, the “F = the rate of change” value ([2]; antibiotic 0.125 μg/mL) was 83%, the “dC/dT (rate of change in glucose concentration)” value ([2]; antibiotic 0.125 μg/mL) was 30 and the “glucose concentration, t = 0” value ([2]; antibiotic 0.125 μg/mL) was 148. For the same compound, the “glucose concentration, t = 60” value ([2]; antibiotic 0.125 μg/mL) was 154, the “glucose concentration, t = 120” value ([2]; antibiotic 0.125 μg/mL) was 149 and the “glucose concentration, t = 180” value ([2]; antibiotic 0.125 μg/mL) was 94. The “F = the rate of change” value ([2]; antibiotic 0.25 μg/mL) was 82%, the “dC/dT (rate of change in glucose concentration)” value ([2]; antibiotic 0.25 μg/mL) was 30 and the “glucose concentration, t = 0” value ([2]; antibiotic 0.25 μg/mL) was 143. For the same compound, the “glucose concentration, t = 60” value ([2]; antibiotic 0.25 μg/mL) was 155, the “glucose concentration, t = 120” value ([2]; antibiotic 0.25 μg/mL) was 146 and the “glucose concentration, t = 180” value ([2]; antibiotic 0.25 μg/mL) was 96. The “F = the rate of change” value ([2]; antibiotic 0.5 μg/mL) was 82%, the “dC/dT (rate of change in glucose concentration)” value ([2]; antibiotic 0.5 μg/mL) was 30 and the “glucose concentration, t = 0” value ([2]; antibiotic 0.5 μg/mL) was 154. The “glucose concentration, t = 60” value ([2]; antibiotic 0.5 μg/mL) was 155, the “glucose concentration, t = 120” value ([2]; antibiotic 0.5 μg/mL) was 148 and the “glucose concentration, t = 180” value ([2]; antibiotic 0.5 μg/mL) was 96. For the same compound, the “F = the rate of change” value ([2]; antibiotic 1 μg/mL) was 75%, the “dC/dT (rate of change in glucose concentration)” value ([2]; antibiotic 1 μg/mL) was 27 and the “glucose concentration, t = 0” value ([2]; antibiotic 1 μg/mL) was 151. The “glucose concentration, t = 60” value ([2]; antibiotic 1 μg/mL) was 164, the “glucose concentration, t = 120” value ([2]; antibiotic 1 μg/mL) was 153 and the “glucose concentration, t = 180” value ([2]; antibiotic 1 μg/mL) was 110. The “F = the rate of change” value ([2]; antibiotic 2 μg/mL) was 29%, the “dC/dT (rate of change in glucose concentration)” value ([2]; antibiotic 2 μg/mL) was 11 and the “glucose concentration, t = 0” value ([2]; antibiotic 2 μg/mL) was 147. For the same compound, the “glucose concentration, t = 60” value ([2]; antibiotic 2 μg/mL) was 160, the “glucose concentration, t = 120” value ([2]; antibiotic 2 μg/mL) was 152 and the “glucose concentration, t = 180” value ([2]; antibiotic 2 μg/mL) was 139. For the same compound, the “glucose concentration, t = 240” value ([2]; antibiotic 2 μg/mL) was 94, the “F = the rate of change” value ([2]; antibiotic 4 μg/mL) was 19% and the “dC/dT (rate of change in glucose concentration)” value ([2]; antibiotic 4 μg/mL) was 7. For the same compound, the “glucose concentration, t = 0” value ([2]; antibiotic 4 μg/mL) was 147, the “glucose concentration, t = 60” value ([2]; antibiotic 4 μg/mL) was 162 and the “glucose concentration, t = 120” value ([2]; antibiotic 4 μg/mL) was 153. The “glucose concentration, t = 180” value ([2]; antibiotic 4 μg/mL) was 148, the “glucose concentration, t = 240” value ([2]; antibiotic 4 μg/mL) was 149 and the “F = the rate of change” value ([2]; antibiotic 8 μg/mL) was 7%. The “dC/dT (rate of change in glucose concentration)” value ([2]; antibiotic 8 μg/mL) was 3, the “glucose concentration, t = 0” value ([2]; antibiotic 8 μg/mL) was 150 and the “glucose concentration, t = 60” value ([2]; antibiotic 8 μg/mL) was 156. The “glucose concentration, t = 120” value ([2]; antibiotic 8 μg/mL) was 146, the “glucose concentration, t = 180” value ([2]; antibiotic 8 μg/mL) was 151 and the “glucose concentration, t = 240” value ([2]; antibiotic 8 μg/mL) was 145. The MIC ([2]; Enterococcus faecalis, ATCC29212, read-out: MIC, Measured) was 1 µg/mL (≈ 0.69 µM).
